Where two headings read alike, the source gives them in different places.
Tested on: TGFβ signal
Experiment: TGFβ signal inhibitory activity, (SBE)4-Luc reporter in A549 cells (Test Examples 1A and 1B)
Assay type: cell-based, human
Settings: Homo sapiens
Summary of the method: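 Compounds at 3 µM and 10 µM (some 1 µM) were added with 2 ng/ml TGFβ-1 to A549 cells stably expressing an SBE-driven luciferase, then cultured 4 hr. Chemiluminescent luciferase signal gave % inhibition versus TGFβ-alone and no-TGFβ controls.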

[1] = A549, test compound 3 µM, Reference Examples, Table 1B, read-out: TGFβ inhibition rate, %
[2] = A549, test compound 10 µM, Reference Examples, Table 1B, read-out: TGFβ inhibition rate, %
[3] = A549, 3 µM, compounds of Reference Examples (Test Example 1B), read-out: TGFβ inhibition rate, %
[4] = A549, 10 µM, compounds of Reference Examples (Test Example 1B), read-out: TGFβ inhibition rate, %

| SMILES | inhibition at 3 µM [1] [%] | inhibition at 10 µM [2] [%] | inhibition at 3 µM [3] [%] | inhibition at 10 µM [4] [%] | further results |
| --- | --- | --- | --- | --- | --- |
| COc1cc2nccc(Oc3ccccc3C(=O)OCc3ccccc3)c2cc1OC [r103] | 20 | 84 |  |  |  |
| COc1cc2nccc(Oc3ccccc3C(=O)Nc3ccccc3)c2cc1OC [r104] | 0 | 58 |  |  |  |
| COc1cc2nccc(Oc3ccc(C)cc3C(=O)N3CCCCC3)c2cc1OC [r109] | 5 | 66 |  |  |  |
| COc1cc2nccc(Oc3cc4ccccc4cc3C(=O)Nc3cccc4ccccc34)c2cc1OC [r114] | 0 | 96 |  |  |  |
| COc1cc2nccc(Oc3ccc(C)nc3I)c2cc1OC [r116] | 99 | 100 |  |  |  |
| COc1ccc(Oc2ccnc3cc(OCCCl)c(OC)cc23)c(C(C)=O)c1 [r119] | 96 | 97 |  |  |  |
| COc1ccc(Oc2ccnc3cc(OCCN4CCOCC4)c(OC)cc23)c(C(C)=O)c1 [r120] | 94 | 100 |  |  |  |
| COc1ccc(Oc2ccnc3cc(OCCCN4CCOCC4)c(OC)cc23)c(C(C)=O)c1 [r122] | 100 | 100 |  |  |  |
| COc1cc2c(Oc3ccc(C)cc3C(=O)c3ccccc3)ccnc2cc1OCCCl [r123] | 98 | 100 |  |  |  |
| COc1cc2c(Oc3ccc(C)cc3C(=O)c3ccccc3)ccnc2cc1OCCNCCO [r124] | 99 | 100 |  |  |  |
| COc1cc2c(Oc3ccc(C)cc3C(=O)c3ccccc3)ccnc2cc1OCCCN1CCC(CO)CC1 [r135] | 100 | 100 |  |  |  |
| COc1cc2c(Oc3ccc(C)cc3C(=O)c3ccccc3)ccnc2cc1OCCCN1CCNCC1 [r137] | 100 | 100 |  |  |  |
| COc1cc2c(Oc3ccc(C)cc3C(=O)c3ccccc3)ccnc2cc1OCCCN1CCN(C)CC1 [r138] | 96 | 100 |  |  |  |
| COc1cc2c(Oc3ccc(C)cc3C(=O)c3ccccc3)ccnc2cc1OCCCN1CCOCC1 [r139] | 99 | 100 |  |  |  |
| COc1cc2c(Oc3ccc(C)cc3C(=O)c3ccccc3)ccnc2cc1OCCCn1ccnc1 [r140] | 85 | 100 |  |  |  |
| COc1cc2c(Oc3ccc(C)cc3C(=O)c3ccccc3)ccnc2cc1OCCCCNCCO [r142] | 100 | 100 |  |  |  |
| CCN(CC)CCCCOc1cc2nccc(Oc3ccc(C)cc3C(=O)c3ccccc3)c2cc1OC [r143] | 97 | 100 |  |  |  |
| CCN(CC)CC(O)COc1cc2nccc(Oc3ccc(C)cc3C(=O)c3ccccc3)c2cc1OC (stereo not drawn) [r153] | 100 | 100 |  |  |  |
| COc1cc2c(Oc3ccc(C)cc3C(=O)c3ccccc3)ccnc2cc1OCC(O)CN1CCC(CO)CC1 (stereo not drawn) [r154] | 99 | 100 |  |  |  |
| COc1cc2c(Oc3ccc(C)cc3C(=O)c3ccccc3)ccnc2cc1OCC(O)CN1CCC(N2CCCC2)CC1 (stereo not drawn) [r155] | 100 | 100 |  |  |  |
| COc1cc2c(Oc3ccc(C)cc3C(=O)c3ccccc3)ccnc2cc1OCC(O)Cn1ccnc1 (stereo not drawn) [r160] | 98 | 100 |  |  |  |
| COc1cc2ncnc(Oc3ccc(C)cc3C(=O)c3ccccc3)c2cc1OC [r161] | 25 | 83 |  |  |  |
| COc1ccc(Oc2ncnc3cc(OC)c(OC)cc23)c(C(C)=O)c1 [r162] | 5 | 54 |  |  |  |

| SMILES | inhibition at 3 µM [1] [%] | inhibition at 10 µM [2] [%] | inhibition at 3 µM [3] [%] | inhibition at 10 µM [4] [%] | further results |
| --- | --- | --- | --- | --- | --- |
| COc1cc2nccc(Oc3ccc(C)cc3C(O)CCCCCCCCCO)c2cc1OC (stereo not drawn) [r165] |  |  | 38 | 89 |  |
| COc1ccc(Oc2ccnc3cc(OC)c(OC)cc23)c(C(O)Cc2ccccn2)c1 (stereo not drawn) [r166] |  |  | 24 | 67 |  |
| COc1cc2nccc(Oc3ccc(C)cc3-c3ccccn3)c2cc1OC [r167] |  |  | 98 | 100 |  |
| COc1cc2nccc(Oc3ccc(C)cc3-c3cccnc3)c2cc1OC [r168] |  |  | 22 | 74 |  |
| COc1cc2nccc(Oc3cc(C)c(C)cc3-c3cccnc3)c2cc1OC [r170] |  |  | 76 | 100 |  |
| COc1cc2nccc(Oc3ccc(-n4ccnc4)cc3I)c2cc1OC [r171] |  |  | 11 | 76 |  |
| CCc1ccc(Oc2ccnc3cc(OC)c(OC)cc23)c(C(C)=O)c1 [r172] |  |  | 82 | 99 |  |
| CCCc1ccc(Oc2ccnc3cc(OC)c(OC)cc23)c(C(C)=O)c1 [r173] |  |  | 83 | 100 |  |
| CCCCc1ccc(Oc2ccnc3cc(OC)c(OC)cc23)c(C(C)=O)c1 [r174] |  |  | 57 | 96 |  |
| COc1cc2nccc(Oc3ccc(O)cc3C(C)=O)c2cc1OC [r176] |  |  | 32 | 67 |  |
| COc1ccc(Oc2ccnc3cc(OC)c(OC)cc23)c(C(C)=O)c1 [r177] |  |  |  |  | inhibition at 3 µM (A549, read-out: TGFβ inhibition rate, %): 94% |
| CCCCOc1ccc(Oc2ccnc3cc(OC)c(OC)cc23)c(C(C)=O)c1 [r180] |  |  | -2 | 55 |  |
| COc1cc2nccc(Oc3cc(Cl)ccc3C(C)=O)c2cc1OC [r181] |  |  | 42 | 82 |  |
| COc1cc2nccc(Oc3cc4c(cc3C(C)=O)CCC4)c2cc1OC [r182] |  |  | 57 | 96 |  |
| COc1cc2nccc(Oc3cc(C)c(C(C)C)cc3C(C)=O)c2cc1OC [r183] |  |  | 82 | 100 |  |
| COC(=O)CCCCCCC(=O)c1cc(C)ccc1Oc1ccnc2cc(OC)c(OC)cc12 [r187] |  |  | 35 | 91 |  |
| COc1cc2nccc(Oc3ccc(C)cc3C(=O)c3ccc(O)cc3)c2cc1OC [r188] |  |  | 80 | 100 |  |
| COc1ccc(Oc2ccnc3cc(OC)c(OC)cc23)c(C(=O)c2nccs2)c1 [r192] |  |  | 79 | 99 |  |
| CO/N=C(\C)c1cc(C)c(C)cc1Oc1ccnc2cc(OC)c(OC)cc12 [r196] |  |  | 41 | 83 |  |
| COc1cc2nccc(Oc3cc(C)c(C)cc3/C(C)=N/OCc3ccccc3)c2cc1OC [r198] |  |  | 32 | 80 |  |
| COc1cc2nccc(Oc3cc(C)c(C)cc3/C(C)=N/Oc3ccccc3)c2cc1OC [r199] |  |  | 14 | 59 |  |
| CCCOC(=O)c1cc2ccccc2cc1Oc1ccnc2cc(OC)c(OC)cc12 [r201] |  |  | 79 | 100 |  |
| COc1cc2nccc(Oc3cccnc3C)c2cc1OC [r202] |  |  | 20 | 54 |  |

| SMILES | inhibition at 3 µM [1] [%] | inhibition at 10 µM [2] [%] | inhibition at 3 µM [3] [%] | inhibition at 10 µM [4] [%] | further results |
| --- | --- | --- | --- | --- | --- |
| COc1cc2nccc(Oc3cccnc3Br)c2cc1OC [r203] |  |  | 19 | 52 |  |
| COc1cc2nccc(Oc3ccc(F)nc3)c2cc1OC [r205] |  |  | 26 | 57 |  |
| COc1cc2nccc(Oc3ccc(Cl)nc3)c2cc1OC [r206] |  |  | 69 | 94 |  |
| COc1cc2nccc(Oc3cncc(Cl)c3)c2cc1OC [r208] |  |  | 18 | 73 |  |
| COc1cc2nccc(Oc3ccc(C)nc3[N+](=O)[O-])c2cc1OC [r210] |  |  | 45 | 80 |  |
| COc1cc2nccc(Oc3ccc(C)nc3C#C[Si](C)(C)C)c2cc1OC [r212] |  |  | 94 | 100 |  |
| COc1cc2nccc(Oc3ccc(C)nc3Cc3ccccc3)c2cc1OC [r214] |  |  | 99 | 100 |  |
| COc1cc2nccc(Oc3ccc(C)nc3Cc3cccc(C)n3)c2cc1OC [r215] |  |  | 72 | 99 |  |
| COc1cc2nccc(Oc3ccc(C)nc3/C=C/c3ccccc3)c2cc1OC [r216] |  |  | 22 | 73 |  |
| COc1cc2nccc(Oc3ccc(C)nc3C(O)c3ccccc3)c2cc1OC (stereo not drawn) [r217] |  |  | 91 | 100 |  |
| COc1cc2nccc(Oc3ccc(C)nc3C(OC(C)=O)c3ccccc3)c2cc1OC (stereo not drawn) [r218] |  |  | 21 | 56 |  |
| COc1cc2nccc(Oc3ccc(C)nc3C(=O)c3cccc(C)n3)c2cc1OC [r221] |  |  | 71 | 98 |  |
| COc1cc2nccc(Oc3cc(Cl)cnc3OC3CCCC3)c2cc1OC [r222] |  |  | 44 | 100 |  |
| COc1cc2nccc(Oc3ccc(C)nc3-c3ccsc3)c2cc1OC [r255] |  |  | 93 | 100 |  |
| COc1cc2nccc(Oc3ccc(C)nc3-c3cc(C)no3)c2cc1OC [r258] |  |  | 99 | 100 |  |
| COc1cc2nccc(Oc3ccc(C)nc3-c3nccs3)c2cc1OC [r259] |  |  |  |  | inhibition at 1 µM (A549, 1 µM, compounds of Reference Examples (Test Example 1B), read-out: TGFβ inhibition rate, %): 100% |
| COc1cc2nccc(Oc3ccc(C)nc3-c3ccccn3)c2cc1OC [r261] |  |  | 100 | 100 |  |
| COc1cc2nccc(Oc3ccc(SC)nc3-c3cccnc3)c2cc1OC [r267] |  |  | 34 | 83 |  |
| COc1cc2nccc(Oc3cc(C)c(C)nc3-c3ccccc3)c2cc1OC [r268] |  |  | 100 | 100 |  |
| COc1cc2nccc(Oc3cc(C)c(C)nc3-c3ncccn3)c2cc1OC [r274] |  |  | 97 |  |  |
| COc1cc2nccc(Oc3cnc4ccccc4c3)c2cc1OC [r275] |  |  | 45 | 90 |  |
| COc1cc2nccc(Oc3cc4ccccc4nc3C)c2cc1OC [r276] |  |  | 89 | 100 |  |
| COc1cc2nccc(Oc3cc4ccccc4nc3C(=O)c3ccccc3)c2cc1OC [r279] |  |  | 98 | 100 |  |
